According to patent US7153524B2, “Method for improving adsorption of a drug from ethylene oxide derivative” (Astellas Pharma Inc., priority 2002, dated 2006):
≈ marks a conversion by molar mass, not a printed value. Counter-ions that a name gives are not always drawn.

What was measured:
[1] = Adsorption of various compounds on the oil-gel phase (Experiment 5); type: physicochemical; conditions: 0.8% mucin, 600 μg loading, 2 hours
Protocol: When Macrogol 6000 was added to the aqueous phase, it was brought to 3.5% (n=3,6). […] The compounds that were used were […], nicardipine hydrochloride, compound B, and compound C. […] Furthermore, the oil phase surface was washed with methanol and the drug adsorbed on the oil phase in the recovered solution was assayed with an ultraviolet-visible spectrophotometer for each compound.

[2] = tested on: H. pylori; assay: In vivo anti-H. pylori activity, Mongolian gerbil infection model (Experiment 4); design: species or system Mongolian gerbils; conditions: for Clearance rate: oral twice a day for three days
Protocol: In vivo anti-H. pylori activity was evaluated with animal experiments using Mongolian gerbil infection models. […] The drug was administered twice a day for three days at an administration volume of 20 mL/kg using an oral stomach tube. The stomach was autopsied and excised and the number of H. pylori in the stomach were measured the day after the final administration. In vivo anti-H. pylori activity was evaluated from clearance, that is, the ratio of the number of cases in which H. pylori was identified and the number of cases in which the number of bacteria after treatment was below the detection limit.

[3] = Rate of adsorption of compound A on the oil-gel phase in presence of POE excipients (Experiment 3); type: physicochemical
Protocol: (§1) In order to study adsorption of a drug from an aqueous phase onto an oil phase (model of mucous layers), an in vitro test system wherein mixing of the oil components in the aqueous phase is prevented was constructed by immobilizing the oil phase with a gelling agent and separating it from the aqueous phase of a drug suspended in a mucin solution. Immobilization of the oil phase was performed by adding 120 mg of an oil gelling agent, which is a natural oil and fat fatty acid extracted from castor oil (Johnson Co., Ltd.), to 2 mL of medium chain fatty acid triglyceride (Nihon Oils and Fats Co., Ltd.; brand name: Panaset) and preparing an oil gel in a test tube (inner diameter of 1 cm, Eiken tube No. 5). A solution of 600 μg of compound A suspended in 2 mL of an aqueous 0.8% mucin solution was prepared and brought into contact with the oil phase (n=6). When Macrogol 6000 was added to the aqueous phase, the concentration was brought to 3.5% (n=3 to 6). After setting the solution aside for two hours, the aqueous phase was recovered and compound A was assayed by HPLC. Furthermore, the surface of the oil phase was washed with methanol and compound A in the recovered solution was assayed by HPLC.
The rate of adsorption of a drug of compound A on the oil phase was measured by the same method as in Example 2.

[4] = Solubility of compound A in water and components of mucus layer; type: physicochemical
Protocol: Compound A is a drug that acts directly from the gastric lumen side on the H. pylori that lives in the mucous layers and therefore, the case wherein after dissolution (I), the bulk powder that has been administered transfers (IV) and the case where the bulk powder is dissolved (II) after transferring to the mucous layers (III) will be considered. The effects of Macrogol 6000 on the course of dissolution of compound A were studied. A specific amount of compound A was added to ion-exchanged water, a 0.8% mucin (Sigma) solution, a 6.2% BSA (Sigma) solution, and linoleic acid (Sigma), and various drugs suspensions were obtained by exposure for 20 minutes to ultrasonic waves (Sono Cleaner, Kaijo Corporation). The rest of the procedure was performed as in Example 1 and the following samples were obtained.
Solubility of compound A in water was calculated by filtering the liquid after dispersion using a hydrophilic filter (0.45 μm, Advantec) and submitting the product to assay by high-performance liquid chromatography (HPLC hereafter) (n=2, sample (1); n=3, sample (2)).
Solubility of the drug in mucin was calculated by filtering the liquid after dispersion using a hydrophilic filter (0.8 μm, Advantec) and submitting the product to assay by HPLC (n=3, samples (3) and (4)).
The liquid after dispersion was filtered with a hydrophilic filter (0.45 μm, Advantec), absorbance at 370 nm and 550 nm (corrected for turbidity) was determined under room temperature using an ultraviolet-visible spectrophotometer, and solubility was calculated (n=3, samples (5) and (6)).
The liquid after dispersion was filtered with a hydrophilic filter (0.45 μm, Advantec), absorbance at 366 nm and 550 nm (corrected for turbidity) was determined under room temperature using an ultraviolet-visible spectrophotometer, and solubility was calculated (n=3, samples (7) and (8)).

[5] = tested on: H. pylori; conditions: compound used alone; cited from earlier work
[6] = tested on: H. pylori; assay: Minimum concentration at which an increase in bacteria is inhibited; type: cell-based
[7] = Adsorption of compound A from aqueous phase onto immobilized oil-gel phase (Experiment 2); type: physicochemical; conditions: for adsorption amount of chemical compound A: drug charge 600 μg, 2 h
Protocol: as §1

Cc1nc2c([nH]1)-c1ccccc1N(C(=O)c1ccc(NC(=O)c3ccccc3-c3ccccc3)cc1)CC2.Cl [compound C, 4′-[(2-methyl-1,4,5,6-tetrahydroimidazo[4,5-d][1]benzazepin-6-yl)carbonyl]-2-phenylbenzanilide hydrochloride]
adsorption amount of chemical compound ([1]; with 3.5% PEG6000): 370 ± 12 µg
adsorption amount of chemical compound ([1]; without PEG6000): 335 ± 10 µg

COC(=O)C1=C(C)NC(C)=C(C(=O)OCCN(C)Cc2ccccc2)C1c1cccc([N+](=O)[O-])c1 (stereo not shown) [nicardipine, nicardipine hydrochloride, reference compound]
adsorption amount of chemical compound ([1]; with 3.5% PEG6000): 96 ± 5 µg
adsorption amount of chemical compound ([1]; without PEG6000): 47 ± 6 µg

CCCCCC/C=C/Cc1c(C)c(=O)c2ccccc2n1O [compound A, 1-hydroxy-2-(2-trans-nonenyl)-3-methyl-4(1H)-quinolone]
augmentation of the in vivo anti-H. pylori activity ([2]; 0.2% Macrogol 6000 added vs 0.5% MC suspension alone): 10 fold
clearance ([2]; 0.2% Macrogol 6000 in 0.5% MC suspension, dose of 0.1 mg/kg or higher): ≥ 80%
in vivo anti-H. pylori activity with Macrogol 6000 compared to without ([2]; 0.2% of Macrogol 6000 added): augmentation of in vivo anti-H. pylori activity was seen
Clearance ratio ([2]; PEG6000 0%, dose 0.1 mg/kg): (0/5)
Clearance rate ([2]; PEG6000 0%, dose 0.1 mg/kg): 0%
Clearance ratio ([2]; PEG6000 0%, dose 0.3 mg/kg): (1/5)
Clearance rate ([2]; PEG6000 0%, dose 0.3 mg/kg): 20%
Clearance ratio ([2]; PEG6000 0%, dose 1 mg/kg): (4/5)
Clearance rate ([2]; PEG6000 0%, dose 1 mg/kg): 80%
Clearance rate ([2]; PEG6000 0%, dose 1 mg/kg, listed as chemical compound A): 80%
Clearance ratio ([2]; PEG6000 0%, dose 3 mg/kg): (4/5)
Clearance rate ([2]; PEG6000 0%, dose 3 mg/kg): 80%
Clearance ratio ([2]; PEG6000 0.2%, dose 0.1 mg/kg): (4/5)
Clearance rate ([2]; PEG6000 0.2%, dose 0.1 mg/kg): 80%
Clearance ratio ([2]; PEG6000 0.2%, dose 0.3 mg/kg): (4/4)
Clearance rate ([2]; PEG6000 0.2%, dose 0.3 mg/kg): 100%
Clearance ratio ([2]; PEG6000 0.2%, dose 1 mg/kg): (4/5)
Clearance rate ([2]; PEG6000 0.2%, dose 1 mg/kg): 80%
Clearance ratio ([2]; PEG6000 0.2%, dose 3 mg/kg): (4/4)
Clearance rate ([2]; PEG6000 0.2%, dose 3 mg/kg): 100%
Adsorption on the oil-gel phase, amount(%) ([3]; excipient HCO 60 (n 60, m 10)): 33 ± 14%
Adsorption on the oil-gel phase, amount(%) ([3]; excipient HCO 80 (n 80, m 13.3)): 17 ± 10%
Adsorption on the oil-gel phase, amount(%) ([3]; excipient HCO 100 (n 100, m 16.7)): 37 ± 11%
Adsorption on the oil-gel phase, amount(%) ([3]; excipient PEG400 (n 8, m 8)): 42 ± 9%
Adsorption on the oil-gel phase, amount(%) ([3]; excipient PEG 4000 (n 72, m 72)): 42 ± 4 %
Adsorption on the oil-gel phase, amount(%) ([3]; excipient PEG 6000 (n 188, m 188)): 72 ± 3 %
Adsorption on the oil-gel phase, amount(%) ([3]; excipient PEG 20000 (n 455, m 455)): 79 ± 0 %
Adsorption on the oil-gel phase, amount(%) ([3]; excipient Pluronic F68 (n 160, m 80)): 67 ± 3 %
Adsorption on the oil-gel phase, amount(%) ([3]; excipient Pluronic L31 (n 3, m 1.5)): 28 ± 5%
Adsorption on the oil-gel phase, amount(%) ([3]; excipient Pluronic L44 (n 20, m 10)): 25 ± 2%
Adsorption on the oil-gel phase, amount(%) ([3]; excipient Pluronic L64 (n 27, m 13.5)): 32 ± 5%
Adsorption on the oil-gel phase, amount(%) ([3]; excipient Pluronic P85 (n 54, m 27)): 40 ± 4 %
Adsorption on the oil-gel phase, amount(%) ([3]; excipient Pluronic P103 (n 29, m 14.5)): 22 ± 7%
Adsorption on the oil-gel phase, amount(%) ([3]; without excipient): 19 ± 7%
solubility ([4]; 0.8% mucin aq. solution (sample 3)): 0.0059 mg/mL (≈ 19.7 µM)
solubility ([4]; 0.8% mucin aq. solution +3.5% PEG6000 (sample 4)): 0.0069 mg/mL (≈ 23 µM)
solubility ([4]; 6.2% BSA aq. solution (sample 5)): 0.018 mg/mL (≈ 60.1 µM)
solubility ([4]; 6.2% BSA aq. solution +3.5% PEG6000 (sample 6)): 0.0269 mg/mL (≈ 89.8 µM)
increase in solubility when Macrogol 6000 was added ([4]; BSA solution, sample 6 vs 5): 1.5 fold
increase in solubility when Macrogol 6000 was added ([4]; aqueous mucin solution, sample 4 vs 3): 1.2 fold
solubility ([4]; distilled water +3.5% PEG6000 (sample 2)): 0.0001 mg/mL (≈ 0.334 µM)
solubility ([4]; distilled water, no PEG6000 (sample 1)): 0.0001 mg/mL (≈ 0.334 µM)
solubility ([4]; linoleic acid (sample 7)): 0.135 mg/mL (≈ 451 µM)
solubility ([4]; linoleic acid +10% PEG6000 (sample 8)): 0.11 mg/mL (≈ 367 µM)
number of live bacteria in vivo [5]: reduction in the number of live bacteria in vivo
minimum concentration at which an increase in bacteria is inhibited [6]: 0.025 µg/mL
drug adsorbed at the surface of the oil phase, % of the drug that was added ([7]; compound A-mucin suspension with Macrogol 6000, average): 93%
drug adsorbed at the surface of the oil phase, % of the charged amount ([7]; compound A-mucin suspension, no Macrogol 6000): 47%
adsorption amount of chemical compound A ([7]; mucin (+), with 3.5% PEG6000): 506 µg
adsorption amount of chemical compound A ([7]; mucin (+), with 3.5% PEG6000, listed as chemical compound A): 506 ± 53 µg
adsorption amount of chemical compound A ([7]; mucin (+), without PEG6000): 259 µg
adsorption amount of chemical compound A ([7]; mucin (+), without PEG6000, listed as chemical compound A): 259 ± 63 µg
adsorption amount of chemical compound A ([7]; mucin (−), with 3.5% PEG6000): 173 ± 25 µg
adsorption amount of chemical compound A ([7]; mucin (−), without PEG6000): 249 ± 24 µg
increase in amount adsorbed on the oil phase when Macrogol 6000 was added ([7]; mucin suspension, with vs without Macrogol 6000): 2.0 fold

Cc1cccc(NC(=O)N[C@@H]2N=C(c3ccccc3)c3ccccc3N(CC(=O)c3ccccc3C)C2=O)c1 [compound B, (R)-1-[2,3-dihydro-1-(2′-methylphenacyl)-2-oxo-5-phenyl-1H-1,4-benzodiazepin-3-yl]-3-(3-methylphenyl)urea]
adsorption amount of chemical compound ([1]; with 3.5% PEG6000): 411 ± 3 µg
adsorption amount of chemical compound ([1]; without PEG6000): 269 ± 13 µg
